“Also recorded” adds a separate entry of the source.
System: Escherichia coli (ATCC strain #25404)
Assay: High-throughput 96-well liquid outgrowth system for the measurement of bacterial cell killing
Assay type: cell-based
Settings: for log kill / antimicrobial effect of the stress inducer after iron pre-incubation: 10 min 1 mM FeCl2 in iso-osmotic saline (130 mM NaCl, pH 5.0), then 10 min a range of concentrations of the stress inducer; for kill by the stress inducer alone: no FeCl2 pre-treatment, 10 min a range of concentrations of the stress inducer, iso-osmotic saline; for antimicrobial effectiveness: 1 mM FeCl2 10 min
From the text: Classical methods for determining antimicrobial effects involve exposure of cells to disinfectant or antiseptic agents contained in tubes or vials, removal of the agents by centrifugation, washing of the cells to remove disinfectant residues, plating of the cells at a number of dilutions onto culture plates, and enumeration of the resulting colonies. Such methods are inadequate for the purposes of the present invention for two principle reasons, namely, treatment of cells in tubes is too lengthy for the determination of rapid effects (e.g., on the order of 1-5 minutes), and treatment and plating are too laborious for the accurate determination of many different interactions in parallel. […] In these experiments, the assays were prepared as follows, and quadruplicate wells were treated in parallel. A high-throughput 96-well liquid outgrowth system was devised for the measurement of bacterial cell killing. Known numbers of living cells were treated, and unknown numbers of surviving cells were quantified by measuring the rate of liquid outgrowth of the culture relative to a standard curve, as determined by optical density. Cells of Escherichia coli (ATCC strain #25404) were grown to mid-log cell density (absorbance of about 0.1 at 600 nm) in 100 mL of Luria Broth (LB) at 37° C. in Erlenmeyer flasks, and then chilled at 0° C. on ice prior to use. “Treatment” plates were prepared as follows. Chilled cells were aliquoted (approximately 50 μL) into wells of a 96-well filtration plate (Multiscreen® (Millipore Corporation, Bedford, Mass.), having a 0.22 μm hydrophilic Durapore® membrane at the bottom of the wells). The LB medium was removed by vacuum filtration, and the remaining cells were washed with 150 μL of an iso-osmotic solution, either sterile saline solution (SSS, 130 mM NaCl, pH 5.0) or sterile HEPES-buffered saline (HBS, 0.595% HEPES, 0.82% NaCl, pH 7.05). The cells on the treatment plate were then exposed to various free iron (for example, FeCl2) and optional stress inducer treatments as described in the examples delineated below. The FeCl2 solutions were always prepared fresh on the day of use from the anhydrous salt. The cells in a set number of wells were not treated; these untreated cells were serially diluted and used to construct a standard curve. “Reading” plates were made from the treatment plate by adding approximately 130 μL of sterile LB medium to each well of three sterile polycarbonate microtiter plates (Corning). […] of the resuspended cells from all wells of the treatment plate were then transferred to a corresponding well on the reading plates, which were then sealed (for example, using polypropylene sealing mats) and incubated at 37° C. with vigorous shaking. Absorbance readings of turbidity (measured at λ=600 nm) were recorded at approximately 45minute intervals over a time course ranging from about two to about seven hours. Cell densities of the wells containing the treated cells were calculated by comparison to the standard curve. Absorbance readings were performed at 600 nm using a standard microtiter plate absorbance reader (Multiskan® microplate reader by Labsystems, Helsinki, FI). The measurements collected for the treated cells were disregarded unless they fell within a region of linear growth in liquid culture, which was individually determined for each time point reading. Generally, acceptable measurements ranged from about 0.020 to about 0.200 OD units. […] Techniques for calculating slopes and determining concentrations from standard curves are known to one skilled in the art, FeCl2 solutions were prepared from the anhydrous salt, and peroxide (H2O2) dilutions are prepared fresh from a 30% w/w stock solution. Cells were plated as described above, then treated with FeCl2 at concentrations ranging from about 1 μM to about 1.024 mM (in HBS). Cells were exposed to the FeCl2 solution for approximately 10 minutes at room temperature (i.e., iron “pre-treatment”).

Compound: lysozyme
- log kill / antimicrobial effect of the stress inducer after iron pre-incubation: highly effective
- kill by the stress inducer alone: none of the concentrations of lysozyme used resulted in any kill alone

Compound: O=C(O)CC(O)(CC(=O)O)C(=O)O [citric acid]
- log kill / antimicrobial effect of the stress inducer after iron pre-incubation: potentiated by pre-incubation with iron

Compound: OCl [hypochlorite]
- log kill / antimicrobial effect of the stress inducer after iron pre-incubation: highly effective
- kill by the stress inducer alone: none of the concentrations of bleach used resulted in any kill alone

Compound: [Cl][Fe][Cl] [FeCl2]
- antimicrobial effectiveness (then NaCl near the iso-osmotic point (130 mM) (FIG. 4)): minimally effective
- antimicrobial effectiveness (then hypo-osmotic (0 mM NaCl) or hyper-osmotic (600 mM) conditions (FIG. 4)): maximally effective
- cell killing (10 min 1 mM FeCl2 in iso-osmotic saline, then 10 min in a range of osmolarities of sodium chloride (FIG. 4)): resulted in killing at all osmolarities
- FeCl2 pre-treatment concentration that increases the sensitivity of cells to subsequent H2O2 (10 min FeCl2 in HBS, then 10 min H2O2 about 73 μM to about 1 mM (FIG. 2B)): ≥ 16 µM
- cell killing (decrease in cell viability) (FeCl2 alone, about 1 μM to about 1.024 mM in iso-osmotic HBS, 10 min room temperature, no hydrogen peroxide (FIG. 2A)): did not result in appreciable cell killing at any concentration; also recorded: relatively small antimicrobial effect
- reduction of microbial population (FeCl2 pre-treatment 10 min in HBS, then H2O2 10 min at concentrations as low as 73 μM (FIG. 2A)): reduced the microbial populations significantly

Compound: O=P([O-])([O-])[O-].[Na+].[Na+].[Na+] [TSP, trisodium phosphate]
- log kill / antimicrobial effect of the stress inducer after iron pre-incubation: enhanced by pre-incubation of the cells with free iron
